# Experimental data: patent US20070293451A1, “Regulation ao ApoB by Hsp110 proteins and related compositions and methods” (University of Pittsburgh, priority 2006, published 2007)
# pKd: −log10 of the molar value. Peptide text beside a SMILES is read from it. * marks the point of attachment. 6FAM = O=C1OC2(c3ccc(O)cc3Oc3cc(O)ccc32)c2cc(C(=O)*)ccc21; Ahx = NCCCCCC(=O)O
# Experiments:
# ApoB100 = ApoB100 biogenesis and secretion from McArdle cells (pulse-chase) on Hsp110 over-expression; assay type: cell-based, rat; conditions: MTP inhibitor BMS-200150 present, without Hsp110 over-expression, data not shown
# Method: FIGS. 9A and 9B show the effect of Hsp110 over-expression on ApoB100 secretion from McArdle cells, a standard rat hepatoma cell model of lipoprotein metabolism. ApoB100 (FIG. 9A) and albumin (FIG. 9B) biogenesis and secretion were assessed by published pulse-chase analytical methods.
# An Hsp110 expression vector was obtained from Dr. John Subjeck (Roswell Park Cancer Center, N.Y.), and either that vector or a vector control was introduced into McArdle cells—a rat hepatoma cell line that also expresses full-length ApoB (that is, ApoB100). […] As a control, there was no effect on albumin secretion from these cells, regardless of whether Hsp110 was over-expressed (FIG. 9B). Furthermore, the over-expression of Hsp110 in the McArdle cells in the presence of a microsomal triglyceride transfer protein (MTP) inhibitor (BMS-200150; Jamil, H., D. A. Gordon, D. C. Eustice, C. M. Brooks, J. K. Dickson, Jr., Y. Chen, B. Ricci, C.-H. Chu, T. W. Harrity, C. P. Ciosek, Jr., S. A. Biller, R. E. Gregg, and J. R. Wetterau. 1996. An inhibitor of the microsomal triglyceride transfer protein inhibits apoB secretion from HepG2 cells. Proc Natl Acad Sci USA. 93, 11991-95) increased the percent of apoB recovered in the lysate and medium fractions from 14% to 28% (data not shown).
# full-length Sse1p = molecular target: T1, full-length Sse1p (Saccharomyces cerevisiae, UniProt P32589); test: Fluorescence anisotropy binding of labeled luciferase-derived peptide to full-length Sse1p
# T1 sequence (P32589 1-693): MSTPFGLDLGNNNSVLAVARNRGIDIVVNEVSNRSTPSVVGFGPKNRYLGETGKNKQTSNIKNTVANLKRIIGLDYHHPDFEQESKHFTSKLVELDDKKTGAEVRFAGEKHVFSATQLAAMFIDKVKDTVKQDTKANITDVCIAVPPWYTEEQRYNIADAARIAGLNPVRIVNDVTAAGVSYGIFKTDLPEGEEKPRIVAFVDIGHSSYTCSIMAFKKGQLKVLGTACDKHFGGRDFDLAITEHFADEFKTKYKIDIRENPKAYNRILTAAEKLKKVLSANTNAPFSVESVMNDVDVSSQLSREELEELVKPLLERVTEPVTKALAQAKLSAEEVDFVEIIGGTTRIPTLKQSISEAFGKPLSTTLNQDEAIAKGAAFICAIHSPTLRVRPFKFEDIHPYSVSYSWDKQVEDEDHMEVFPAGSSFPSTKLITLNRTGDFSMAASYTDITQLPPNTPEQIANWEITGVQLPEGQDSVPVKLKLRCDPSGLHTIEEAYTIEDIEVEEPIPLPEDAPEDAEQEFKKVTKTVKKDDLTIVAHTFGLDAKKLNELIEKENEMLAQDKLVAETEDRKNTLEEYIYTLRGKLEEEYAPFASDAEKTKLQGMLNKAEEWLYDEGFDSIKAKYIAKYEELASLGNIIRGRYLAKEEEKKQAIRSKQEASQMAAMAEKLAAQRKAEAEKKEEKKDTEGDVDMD
# Method: (§1) Binding was assessed by fluorescence anisotropy.
# [1] = molecular target: Sse1p peptide binding domain (Saccharomyces cerevisiae, UniProt P32589); conditions: fluorescence anisotropy
# Method: (SEQ ID NO: 1) (which derives from firefly luciferase), assessed by fluorescence anisotropy.
# as §1
molecule,measurement,setting,value
"O=C1c2ccccc2CN1C1CCN(CCC(c2ccccc2)c2ccccc2)CC1 [BMS-200150, reference compound]",percent of apoB recovered in the lysate and medium fractions,ApoB100,14%
"LICGFRVVLMYRF [Unlabeled peptide, unlabeled form of the firefly luciferase-derived peptide]",competition with labeled peptide for binding,full-length Sse1p; data not shown,competes for binding
CC[C@H](C)[C@H](NC(=O)[C@H](CC(C)C)NC(=O)CCCCCNC(=O)c1ccc2c(c1)C1(OC2=O)c2ccc(O)cc2Oc2cc(O)ccc21)C(=O)N[C@@H](CS)C(=O)NCC(=O)N[C@@H](Cc1ccccc1)C(=O)N[C@@H](CCCNC(=N)N)C(=O)N[C@H](C(=O)N[C@H](C(=O)N[C@@H](CC(C)C)C(=O)N[C@@H](CCSC)C(=O)N[C@@H](Cc1ccc(O)cc1)C(=O)N[C@@H](CCCNC(=N)N)C(=O)N[C@@H](Cc1ccccc1)C(=O)O)C(C)C)C(C)C [6-carboxyfluorescein-aminohexanoic acid-linked-LICGFRVVLMYRF] ({6FAM-Ahx}-LICGFRVVLMYRF-OH),lower affinity for Sse1p peptide binding domain alone compared with Sse1p,[1],~100 fold
same,pKd,full-length Sse1p,8.52 to 8.70
